The results in this text go back to ChEMBL document CHEMBL3046691, “Herbicidal pyridyl derivatives of aminomethylene-bisphosphonic acid inhibit plant glutamine synthetase” (J Agric Food Chem, 2004).

pIC50: −log10 of the molar value. Active and inactive are the calls of the source. No cut-off for these calls is given here.

Test [1] deals with T1, Glutamine synthetase (Oryza sativa) (UniProt Q01HZ7).
T1 sequence (whole entry): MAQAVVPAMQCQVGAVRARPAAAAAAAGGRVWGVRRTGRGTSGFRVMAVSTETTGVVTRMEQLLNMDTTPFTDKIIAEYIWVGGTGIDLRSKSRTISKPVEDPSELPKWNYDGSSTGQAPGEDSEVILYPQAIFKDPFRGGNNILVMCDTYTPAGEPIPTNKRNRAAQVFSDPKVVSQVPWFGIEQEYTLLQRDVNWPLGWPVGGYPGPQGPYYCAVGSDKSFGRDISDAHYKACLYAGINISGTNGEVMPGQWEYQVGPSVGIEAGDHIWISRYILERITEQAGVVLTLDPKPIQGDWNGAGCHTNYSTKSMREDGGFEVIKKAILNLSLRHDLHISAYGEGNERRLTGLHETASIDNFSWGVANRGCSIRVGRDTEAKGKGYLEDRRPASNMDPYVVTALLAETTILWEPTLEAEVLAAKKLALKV
Put plainly: Inhibition of Oryza sativa cv. Gigante vercellese (rice) glutamine synthetase at 1 mM after 30 min by hemibiosynthetic assay. The following applies: values are per cent of control.

For test [2], the target named is T1, Glutamine synthetase (Oryza sativa). Nature of the test: Inhibition of Oryza sativa cv. Gigante vercellese (rice) glutamine synthetase at 1 mM by transferase assay. The following applies: values are per cent of control.
Test [3] shares this target. Put plainly: Inhibition of Oryza sativa cv. Gigante vercellese (rice) glutamine synthetase assessed as inhibition of glutamine synthesis from glutamic acid at 1 mM after 15 min by biosynthetic assay. The following applies: values are per cent of control.
Test [4] addresses T2, Glutamine synthetase (Oryza sativa, UniProt Q01HZ7).
T2 sequence (Q01HZ7 whole entry): T1 sequence (whole entry)
Put plainly: (§1) Inhibition of Oryza sativa cv. Gigante vercellese (rice) glutamine synthetase after 30 min by hemibiosynthetic assay. The following applies: read-out: I50.

In test [5] the target is T2, Glutamine synthetase. Nature of the test: Inhibition of Oryza sativa cv. Gigante vercellese (rice) glutamine synthetase assessed as inhibition of glutamine synthesis from glutamic acid after 15 min by biosynthetic assay. The following applies: read-out: I50.
For test [6], the target named is T2, Glutamine synthetase. Nature of the test: (§2) Inhibition of Oryza sativa cv. Gigante vercellese (rice) glutamine synthetase by transferase assay. The following applies: read-out: I50.
Test [7] has as its system Oryza sativa. Put plainly: Effect on amino acid pool in Oryza sativa cv. Gigante vercellese (rice) cells assessed as glutamic acid content per gram freshweight of culture at 0.5 mM after 48 hr (reference value: 0.75 +/- 0.07 umol). The class given is functional.
In test [8] the test system is Oryza sativa. Put plainly: Effect on amino acid pool in Oryza sativa cv. Gigante vercellese (rice) cells assessed as total amino acid content per gram fresh weight of culture at 0.5 mM after 48 hr (reference value: 24.65 +/- 0.97 umol). The test is classed as functional.
In test [9] the test system is Oryza sativa. Nature of the test: Effect on amino acid pool in Oryza sativa cv. Gigante vercellese (rice) cells assessed as asparagine content per gram freshweight of culture at 0.5 mM after 48 hr (reference value: 3.18 +/- 0.25 umol). The test is classed as functional.
Test [10] concerns Oryza sativa. Nature of the test: Effect on amino acid pool in Oryza sativa cv. Gigante vercellese (rice) cells assessed as aspartic acid content per gram freshweight of culture at 0.5 mM after 48 hr (reference value: 1.10 +/- 0.26 umol). The test is classed as functional.
For test [11], the system named is Oryza sativa. Nature of the test: Effect on amino acid pool in Oryza sativa cv. Gigante vercellese (rice) cells assessed as glutamine content per gram fresh weight of culture at 0.5 mM after 48 hr (reference value: 4.24 +/- 0.35 umol). The test is classed as functional.
The test system of test [12] is Oryza sativa. Nature of the test: Effect on amino acid pool in Oryza sativa cv. Gigante vercellese (rice) cells assessed as serine content per gram freshweight of culture at 0.5 mM after 48 hr (reference value: 0.60 +/- 0.09 umol). The test is classed as functional.
Test [13] addresses T1, Glutamine synthetase (Oryza sativa). Nature of the test: Reversible inhibition of Oryza sativa cv. Gigante vercellese (rice) glutamine synthetase assessed as inhibition of glutamine synthesis from glutamic acid at 20 uM after 50 min by biosynthetic assay.
Test [14] has the same target. The test is described as §2.
The target is the same in test [15]. Described as §1.
The target is the same in test [16]. Nature of the test: Reversible inhibition of Oryza sativa cv. Gigante vercellese (rice) glutamine synthetase assessed as inhibition of glutamine synthesis from glutamic acid at 10 uM after 50 min by biosynthetic assay.

`O=P(O)(O)C(Nc1ncccn1)P(=O)(O)O`: the residual activity amounted to 64.3% in [1], 76.8% in test [2] and 42.3% in test [3].
Turning to `O=[N+]([O-])c1cccc(NC(P(=O)(O)O)P(=O)(O)O)c1` [(3-NITROPHENYLAMINO)METHYLENEDIPHOSPHONIC ACID], the pIC50 at Glutamine synthetase [4] was 2.79; on Glutamine synthetase [5] it was 3.13; on Glutamine synthetase [6], 5.70. Moreover, the residual activity came to 101% in test [1], 95.6% in test [2] and 97.6% in test [3].
For the molecule `O=P(O)(O)C(Nc1cc(Cl)cc(Cl)c1)P(=O)(O)O` [(3,5-DICHLOROPHENYLAMINO)METHYLENEDIPHOSPHONIC ACID], the pIC50 is 4.06 on Glutamine synthetase [4], 4.48 at Glutamine synthetase [5] and 6.40 on Glutamine synthetase [6]. The Activity in the test on Oryza sativa [7] is 3.19 µmol/g fresh weight; with Oryza sativa [8], 28.61 umol/g fresh weight; with Oryza sativa [9], 0.49 umol/g fresh weight; in the test on Oryza sativa [10], 0.57 umol/g fresh weight; with Oryza sativa [11] it was 2.72 umol/g fresh weight; with Oryza sativa [12] it was 1.26 umol/g fresh weight. Further, the residual activity came to 13.1% in [1], 38.1% in test [2] and 3.1% in test [3]. Besides, the inhibition entry in test [13] was “Active”.
Regarding `O=P(O)(O)C(Nc1ccccc1)P(=O)(O)O`, the residual activity in test [1] was 92%; in test [2], 44.3%; in test [3], 108%.
In the case of `O=P(O)(O)C(NCCc1ccc(O)cc1)P(=O)(O)O` [(4-HYDROXYPHENETHYLAMINO)METHYLENEDIPHOSPHONIC ACID], the pIC50 was 3.16 on Glutamine synthetase [4] and 2.35 on Glutamine synthetase [5]. The residual activity is 36.9% in [1], 98.4% in [2] and 72.6% in test [3]. For the same molecule, the I50 result in test [14] was “inactive”.
As for `O=P(O)(O)C(NCc1ccccn1)P(=O)(O)O`, the results for the pIC50 on Glutamine synthetase [4], on Glutamine synthetase [5] and on Glutamine synthetase [6] were 3.99, 4.19 and 2.95, respectively. For the same molecule, the Activity in the test with Oryza sativa [7] is reported as 4.78 µmol/g fresh weight; with Oryza sativa [8], 26.94 umol/g fresh weight; with Oryza sativa [9] it was 0.63 umol/g fresh weight; in the test with Oryza sativa [10], 1.66 umol/g fresh weight; with Oryza sativa [11], 3.25 umol/g fresh weight; in the test on Oryza sativa [12], 1.53 umol/g fresh weight. For the same molecule, the residual activity in test [1] worked out at 16.1%; in test [2] it was 54.6%; in test [3], 8.8%.
`O=P(O)(O)C(Nc1ccncc1)P(=O)(O)O`: the Activity with Oryza sativa [7] was determined as 4.24 µmol/g fresh weight; in the test on Oryza sativa [8] it was 32.64 umol/g fresh weight; in the test with Oryza sativa [9] it was 1.14 umol/g fresh weight; in the test with Oryza sativa [10], 1.21 umol/g fresh weight; in the test on Oryza sativa [11] it was 4.79 umol/g fresh weight; in the test with Oryza sativa [12], 2.22 umol/g fresh weight. Besides, the values for the residual activity in test [1], in test [2] and in test [3] were 97.2%, 84.9% and 119%, respectively.
In the case of `O=P(O)(O)C(NCc1ccccc1)P(=O)(O)O`, the residual activity in test [1] is 89.1%; in test [2], 102%; in [3], 109%.
As to `NC(P(=O)(O)O)P(=O)(O)O`, the values for the residual activity in test [1], in [2] and in test [3] were 81.2%, 96.4% and 119%, respectively.
Regarding `O=C(O)c1cccnc1NC(P(=O)(O)O)P(=O)(O)O` [2-(DIPHOSPHONOMETHYLAMINO)NICOTINIC ACID], the pIC50 was 3.20 on Glutamine synthetase [4], 3.48 on Glutamine synthetase [5] and 5.84 on Glutamine synthetase [6]. Moreover, the residual activity came to 40.8% in test [1], 61% in test [2] and 27.2% in test [3].
Turning to `O=P(O)(O)C(Nc1ccc(Cl)cn1)P(=O)(O)O`, the pIC50 at Glutamine synthetase [4] is 4.02; on Glutamine synthetase [5] it was 4.16; on Glutamine synthetase [6], 2.98. Moreover, the results for the residual activity in test [1], in [2] and in test [3] were 17.5%, 52.8% and 13.9%, respectively.
Take `O=C(O)c1cccc(NC(P(=O)(O)O)P(=O)(O)O)c1` [3-(DIPHOSPHONOMETHYLAMINO)BENZOIC ACID]: the I50 result in [15] and in test [14] was “inactive” in each case. The pIC50 at Glutamine synthetase [5] was 2.74. Also, the residual activity in [1] worked out at 99%; in test [2], 104%; in test [3], 62.5%.
For the molecule `O=P(O)(O)C(NC1CCCCC1)P(=O)(O)O` [(CYCLOHEXYLAMINO)METHYLENEDIPHOSPHONIC ACID], the pIC50 at Glutamine synthetase [4] is 3.34; on Glutamine synthetase [5], 2.95; at Glutamine synthetase [6], 3.04. The figures for the residual activity in test [1], in test [2] and in test [3] were 32.7%, 46.1% and 50.5%, respectively.
On to `Cc1ccc(NC(P(=O)(O)O)P(=O)(O)O)cc1` [(P-TOLYLAMINO)METHYLENEDIPHOSPHONIC ACID], for which the pIC50 is 3.11 on Glutamine synthetase [4] and 3.77 on Glutamine synthetase [5]. For the same molecule, the Activity with Oryza sativa [7] came to 2.97 µmol/g fresh weight; in the test on Oryza sativa [8], 22.91 umol/g fresh weight; in the test on Oryza sativa [9] it was 0.61 umol/g fresh weight; in the test with Oryza sativa [10], 0.76 umol/g fresh weight; in the test on Oryza sativa [11], 2.95 umol/g fresh weight; with Oryza sativa [12] it was 0.6 umol/g fresh weight. The residual activity in test [1] was 57.6%; in test [2], 93.8%; in test [3], 14.3%. Also, the I50 entry in test [14] was “inactive”.
`Cc1ccccc1CNC(P(=O)(O)O)P(=O)(O)O`: the residual activity in [1] amounted to 70.5%; in [2], 50.8%; in test [3] it was 101%.
Regarding `Cc1cccc(NC(P(=O)(O)O)P(=O)(O)O)n1`, the residual activity in test [1] worked out at 74.4%; in test [2], 25.9%; in test [3] it was 114%.
As to `CP(=O)(O)CC[C@H](N)C(=O)O` [PHOSPHINOTHRICIN], the pIC50 is 4.31 on Glutamine synthetase [4], 4.36 at Glutamine synthetase [5] and 3.76 on Glutamine synthetase [6]. Further, in [16], the inhibition result is “inactive”. The residual activity in test [1] was 9.9%; in [2], 25.7%; in test [3], 2%.
`O=P(O)(O)C(Nc1ccccn1)P(=O)(O)O`: the figures for the pIC50 on Glutamine synthetase [4], at Glutamine synthetase [5] and on Glutamine synthetase [6] were 3.67, 3.61 and 2.98, respectively. Moreover, the results for the residual activity in test [1], in test [2] and in test [3] were 30.2%, 60.1% and 37.6%, respectively.

Usually residual activity stands for the signal under treatment as a percentage of the control signal.
